The compounds below were run on Plasmodium falciparum (assay: Antimalarial activity against Plasmodium falciparum assessed as reduction in parasite growth after 72 hrs by LDH assay).
Assay type: functional, organism-based

Structure (SMILES) | EC50 [nM]
CCC1(CC)CC(=O)N([C@H](c2cccnc2)[C@@H]2C(C)[C@H]2C(=O)N[C@H]2CC(C)(C)Oc3ccccc32)C(=N)N1 (stereo partly specified) | 0.7
CC[C@]1(C)CC(=O)N([C@H](c2cncc(F)c2)[C@@H]2C[C@H]2C(=O)N[C@H]2C[C@H](C(F)(F)F)Oc3ccccc32)C(=N)N1 | 0.3
CC[C@@]1(C)CC(=O)N([C@H](c2cncc(F)c2)[C@@H]2C[C@H]2C(=O)N[C@H]2CC(C)(C)Oc3ccccc32)C(=N)N1 | 0.6
CC[C@]1(C)CC(=O)N([C@H](c2cncc(F)c2)[C@@H]2C[C@H]2C(=O)N[C@H]2CC(C)(C)Oc3ccc(F)cc32)C(=N)N1 | 0.3
CCC1(CC)CC(=O)N([C@H](CCCC(C)OC)[C@@H]2C[C@H]2C(=O)N[C@H]2CC(C)(C)Oc3ccccc32)C(=N)N1 (stereo partly specified) | 0.7
CC1(C)CC(=O)N([C@H](c2cncc(Cl)c2)[C@@H]2C[C@H]2C(=O)N[C@H]2C[C@H](C(F)(F)F)Oc3ccccc32)C(=N)N1 | 0.5

Source: ChEMBL document CHEMBL4834491, “Novel Compounds for Treating Malaria” (ACS Med Chem Lett, 2021)
